Square brackets hold non-standard residues; d marks the D form.
What was measured:
[1] = Incorporation of peptide subunit into lipid bilayers of large unilamellar vesicles (absorption and fluorescence spectroscopy); type: physicochemical; settings: aqueous liposomal suspensions
Source text: Incorporation of the peptide subunit into lipid bilayers using large unilamellar vesicles has been established by absorption and fluorescence spectroscopy. Formation of the hydrogen-bonded transmembrane channel structure in phosphatidylcholin liposomes has been supported by FT-IR spectroscopy (FIG. 24). The observed amide-I band at 1624 cm^−1 is not only similar to the carbonyl stretching frequencies found in other nanotube structures disclosed herein, but is also consistent with the infrared spectrum of gramicidin A in similar lipid bilayers. (E. Nabedryk et al in Biophys. J. (1982), vol. 38, pages 243-249. Furthermore, the observed N-H stretching frequency at 3272 cm^−1 strongly supports the formation of a tight network of hydrogen bonds with an average intersubunit distance of 4.7 Å.
The second control peptide cyclo[-(^MeN-D-Ala-Phe)4-] which has the desirable hydrophobic surface characteristics but lacks the propensity for participating in extended hydrogen bonding network, was also designed and tested for ion transport activity. The peptide design incorporates a novel N-methylation strategy on one face of the ring structure which predisposes the subunit toward a dimeric cylindrical structure (Ghadiri, M. R., Kobayashi, K., Granja, J. R., Chadha, R., and McRee, D. E. manuscript in preparation). Such a dimeric cylindrical ensemble is approximately 10 Å thick and can not span the lipid bilayer.
The ten-residue peptide subunit employed in the present study, cyclo[-Gln-(D-Leu-Trp)4-D-Leu-], is made up of largely tryptophan and leucine residues to favor its partitioning into and self-assembly in lipid bilayers. It was synthesized on solid support^5 and characterized by ^1H NMR spectroscopy and mass spectrometry. […] This has been supported by absorption and fluorescence spectrophotometry and gel permeation studies. Formation of a hydrogen bonded transmembrane channel structure in phosphatidylcholin liposomes has been established by FT-IR spectroscopy^6. […]

[2] = Single channel conductance, micro patch clamp on planar lipid bilayers; type: biochemical; settings: for single channel conductance: peptide in the range of 10^−7 M in the subphase
Source text: FIG. 26 illustrates a 140 second continuous K^+ single channel conductance recording at 50 mV of the channel forming compounds indicated in FIG. 24. Open-closed transitions indicate gating mechanisms which may reflect structural flexibility or rapid assembly-disassembly of the tubular membrane channel structures. Short and long channel life times in the open state could be distinguished with values of t(short)=0.71±0.03 ms and t(long)=37.14±8.99 ms (total number of events 510) with an overall open probability P(O) of 0.29. Peptide concentration at the subphase was 1.0×10^−7 M. As is expected for any such self-assembling channel forming species, channel opening lifetimes show significant dependence on the peptide concentration. Raising the added peptide concentration in the subphase to 2.0×10^−5 M, produces open channel lifetimes of […] >30 seconds.
Formation of transmembrane channels was also inferred from its highly efficient proton transport activity. Vesicles were prepared having pH 6.5 inside and pH 5.5 in the outside bulk solution. The collapse of the imposed pH gradient in these vesicles, upon formation of the putative transmembrane channel structure, was studied by monitoring the fluorescence intensity of an entrapped pH-sensitive dye. (V.E. Carmichael et al, in J.Am. Chem. Soc. (1989), vol. 111, pages 767-769). […] Unilamellar vesicles were prepared by the reverse-phase evaporation using DPPC, OPPC, cholestrol in the ratio of 1:1:2 in a solution containing 5(6)-carboxyfluorescein (20 mM in phosphate/saline buffer: 137 mM NaCl, 2.6 mM KCl, 6.4 mM Na2HPO4, 1.4 mM KH2PO4, pH 6.5) according to the method of F. Szoka et al. in Proc. Natl. Acad. Sci. USA (1978), vol. 75, pages 4194-4198. Liposomes were then sized by multiple extrusions through Nucleopore® polycarbonate membranes (10 times, 50 psi, using 0.8 and 2×0.4 micron filter stacks) and the untrapped 5(6)-carboxyfluorescein was removed by size exclusion chromatography (Sephadex G-25 column 1×30 cm) using the same phosphate/saline buffer according to the method of F. Olson et al. in Biochim. Biophys. Acta (1979), vol. 557, pages 9-23. Vesicles formed in this way are approximately 150 nanometer in diameter as determined by electron microscopy. (R. R. C. New, Ed. Liposomes, Oxford university Press, 1990). In each experiment, 70 ml of the stock vesicle solution (3.5×10^−3 M in phospholipids) was added to pH 5.5 buffer (1.3 ml, 137 mM NaCl, 2.6 mM KCl, 6.4 Na2HPO4, 1.4 KH2PO4) and placed in a 1 cm quartz cuvett inside a stirring thermojacketed sample holder of the florescence instrument and equilibrated at 25° C. for 15 minutes with gentle stirring. To the cuvett, through an injector port, […] of the channel forming compounds in DMSO was added with continuous fluorescence monitoring at 520 nm (excitation at 470 nm). The observed data were then normalized for comparison into the fractional change in fluorescence ((I0−It)/(I0−I∞)) (V. E. Carmichael et al, in J.Am. Chem. Soc. (1989), vol. 111, pages 767-769)). […] The lipid bilayers used were formed on the tip of patch pipettes using a mixture of synthetic POPE: POPS (4:1) (1-palmitoyl-2-oleoyl-Sn-glycero-3-phosphatidylethano lamine and -serine). Five to 10 ml of the peptide solution (1.0×10^−7 or 2.0×10^−6 M in 25% DMSO in buffer solution containing 500 mM NaCl or KCl, 5 mM CaCl2, 10 mM HEPES, pH 7.5) was added to 150 ml subphase volume resulting in spontaneous partitioning of the peptide into the membrane. Ion channels formed spontaneously after peptide was added to the subphase of lipid bilayers. […] Data acquisition and analysis were performed on a Gateway 2000/486 computer using pClamp software package and TL-1 labmaster interface. Acquisition rate was 0.1 ms and data were filtered at 2 kHz.
The ultimate test in establishing and quantitating the transport efficiency of a membrane channel structure is to measure its single channel conductance using micro patch clamp techniques. […]

[3] = K^+ recording at 50 mV, peptide 1.0×10^−7 M in subphase, 510 events

Substance | partitioning / incorporation into lipid bilayers [1] | single channel conductance ([2]; 500 mM KCl) [pS] | single channel conductance ([2]; 500 mM NaCl) | actual rate of channel-mediated ion transport ([2]; K^+) | overall open probability P(O) ([2]; K^+ recording at 50 mV, peptide 1.0×10^−7 M in subphase) | channel life time in the open state, t(long) [2, 3] [ms] | channel life time in the open state, t(short) [2, 3] [ms] | actual rate of channel-mediated ion transport ([2]; Na^+) | rate of ion transport relative to gramicidin A under similar conditions ([2]; gramicidin A value from literature) | dependence of single channel conductance on applied voltage ([2]; measured range of 10-100 mV) | open channel lifetimes ([2]; peptide concentration in the subphase raised to 2.0×10^−5 M) [s] | ion channel activity observed (membranes with activity) ([2]; symmetrical solutions of 500 mM NaCl or KCl, 5 mM CaCl2, 10 mM HEPES, pH 7.5) | ion transport rate / efficiency ([2]; single ion channel recordings)
cyclo[-(Trp-D-Leu)3-Gln-D-Leu-] (cyclo(W[dL]W[dL]W[dL]Q[dL]); SMILES CC(C)C[C@H]1NC(=O)[C@H](CCC(N)=O)NC(=O)[C@@H](CC(C)C)NC(=O)[C@H](Cc2c[nH]c3ccccc23)NC(=O)[C@@H](CC(C)C)NC(=O)[C@H](Cc2c[nH]c3ccccc23)NC(=O)[C@@H](CC(C)C)NC(=O)[C@H](Cc2c[nH]c3ccccc23)NC1=O) [eight residue ion channel forming cyclic peptide, approximately 7.5 Å pore] | rapid partitioning | ~65 | approximately 55 pS | 2.2×10^7 ion.sec^−1 | 0.29 | 37.14 ± 8.99 | 0.71 ± 0.03 | 1.8×10^7 ion.sec^−1 | three | independent of the applied voltage | > 30 | 14 out of 22 | –
cyclo[-Gln-(D-Leu-Trp)4-D-Leu-] (cyclo(Q[dL]W[dL]W[dL]W[dL]W[dL]); SMILES CC(C)C[C@H]1NC(=O)[C@H](CCC(N)=O)NC(=O)[C@@H](CC(C)C)NC(=O)[C@H](Cc2c[nH]c3ccccc23)NC(=O)[C@@H](CC(C)C)NC(=O)[C@H](Cc2c[nH]c3ccccc23)NC(=O)[C@@H](CC(C)C)NC(=O)[C@H](Cc2c[nH]c3ccccc23)NC(=O)[C@@H](CC(C)C)NC(=O)[C@H](Cc2c[nH]c3ccccc23)NC1=O) [10-residue cyclic peptide forming 10 Å pores that transport glucose] | rapid incorporation | – | – | – | – | – | – | – | – | – | – | – | > 10^7 ions.sec^−1

— patent publication US6613875B1, “Cyclic peptide tube” (The Scripps Research Institute, priority 1993, dated 2003)
